From US11530206B2, “Phenylaminopyrimidine amide autophagy inhibitors and methods of use thereof” (Deciphera Pharmaceuticals, LLC, priority 2019, dated 2022)

Tested on: ULK kinase
Experiment: pATG13 levels of mutant KRas HCT-116 cells after treatment with ULK inhibitors in combination with trametinib (ELISA)
Type: cell-based, human
Conditions: HCT-116 colon cancer cells, 250 nM trametinib, overnight, pS318-ATG13
Description: The following day, 10 μL of media containing trametinib or DMSO as a control was added to wells. […] A dose response of a test compound (0.6 μL per well) was added. DMSO (0.6 μL) was added to control wells. The plate was briefly shaken to mix wells and then incubated at 37° C. overnight. The next day, the media was aspirated and cells were washed with Dulbecco's Phosphate Buffered Saline (Gibco). Cells were lysed using MPER lysis buffer (Pierce, Rockford, Ill.) containing Halt Phosphatase and Protease Inhibitors (Pierce, Rockford, Ill.) and Phosphatase inhibitor cocktail 2 (Sigma, St. Louis, Mo.) at 4° C. for 10 minutes with shaking.
Plate wells were washed with ELISA wash buffer. Cell lysate was added to wells and incubated at room temperature for 2 hours. Plate wells were washed with ELISA wash buffer. […] Plate wells were washed with ELISA wash buffer. […] Plate wells were washed with ELISA wash buffer. […] The reaction was stopped with 2N Sulfuric Acid. The plate was analyzed at on a plate reader measuring absorbance at 450 nm and 540 nm (background). Signal was calculated by first subtracting the background absorbance at 540 nm from the absorbance at 450 nm for each well. Next, the background corrected absorbance at 450 nm from blank wells was subtracted from test wells. Data was compared to control wells to determine % ATG13 phosphorylation. GraphPad Prism was used to calculate IC50 values.

Row | Compound | IC50 [nM]
1 | CCc1cc(N2CCNCC2)ccc1Nc1ncc(C(F)(F)F)c(NCCCN2CCOCCC2=O)n1 [Example 84] | 10 to 100
2 | CN1CCN(c2ccc(Nc3ncc(C(F)(F)F)c(NCCCN4CCCOC4=O)n3)c(C3CC3)c2)CC1 [Example 41] | 10 to 100
3 | CN1CCN(c2ccc(Nc3ncc(C(F)(F)F)c(NCCCN4CCCOCC4=O)n3)c(C3CC3)c2)CC1 [Example 52] | 10 to 100
4 | CCc1cc(N2CC3CCC(C2)N3C)ccc1Nc1ncc(C(F)(F)F)c(NCCCN2CCOCCC2=O)n1 [Example 74] | 10 to 100
5 | CN1CCN(c2ccc(Nc3ncc(C(F)(F)F)c(NCCCN4CCCCC4=O)n3)c(C3CC3)c2)CC1 [Example 14] | 10 to 100
6 | CN1CCN(c2ccc(Nc3ncc(C(F)(F)F)c(NCCCN4CCOCCC4=O)n3)c(C3CC3)c2)CC1 [Example 70] | 10 to 100

The remaining lines, values ahead:

Row | IC50 [nM] | Compound
7 | 100 to 300 | CCc1cc(N2CCN(C)CC2)c(F)cc1Nc1ncc(C(F)(F)F)c(NCCCN2CCOCCC2=O)n1 [Example 86]
8 | 10 to 100 | CCc1cc(N2CCN(C)CC2)ccc1Nc1ncc(Br)c(NCCCN2CCOCCC2=O)n1 [Example 76]
9 | 10 to 100 | CCc1cc(N2CCN(C)CC2)ccc1Nc1ncc(C(F)(F)F)c(NCCCN2CCCOC2=O)n1 [Example 39]
10 | 100 to 300 | CCc1cc(N2CCNCC2)ccc1Nc1ncc(C(F)(F)F)c(NCCCN2CCCOC2=O)n1 [Example 46]
11 | 10 to 100 | CN1CCN(c2ccc(Nc3ncc(Cl)c(NCCCN4CCCOCC4=O)n3)c(C3CC3)c2)CC1 [Example 55]
